The results in this text go back to ChEMBL document CHEMBL3600339, “Novel Resveratrol-Based Aspirin Prodrugs: Synthesis, Metabolism, and Anticancer Activity” (J Med Chem, 2015).

For one data set, the system named is Stomach. Briefly: Retention time of the compound in C57BL/6J mouse stomach content at 200 mg/kg, ig by HPLC-CEAD analysis. The class given is ADME, organism-based. The following applies: in vivo, po.
For data set [1], the system named is HCT-116. Briefly: Cell cycle arrest in human HCT116 cells assessed as accumulation at G2/M phase at 40 uM after 24 hrs by propidium iodide staining-based flow cytometric analysis (reference value: 23.75%). The class given is functional. On the technique in general: A flow cytometer gives signals particle by particle.
Data set [2] deals with HCT-116. Briefly: Cell cycle arrest in human HCT116 cells assessed as accumulation at G0/G1 phase at 60 uM after 24 hrs by propidium iodide staining-based flow cytometric analysis (reference value: 37.89%). It counts as functional.
In data set [3] the test system is HT-29. Briefly: Cell cycle arrest in human HT-29 cells assessed as accumulation at S phase at 40 uM after 24 hrs by propidium iodide staining-based flow cytometric analysis (reference value: 35.26%). It counts as functional.
Data set [4] concerns HT-29. Briefly: Cell cycle arrest in human HT-29 cells assessed as accumulation at G0/G1 phase at 60 uM after 24 hrs by propidium iodide staining-based flow cytometric analysis (reference value: 33.61%). It counts as functional.
The test system of data set [5] is HT-29. Briefly: Cell cycle arrest in human HT-29 cells assessed as accumulation at G2/M phase at 60 uM after 24 hrs by propidium iodide staining-based flow cytometric analysis (reference value: 31.81%). It counts as functional.
Data set [6] relates to HCT-116. Briefly: Cell cycle arrest in human HCT116 cells assessed as downregulation of cyclin D1 expression after 24 hrs by Western blot analysis. It counts as functional, cell-based. In general terms: Immunoblotting shows a protein as a band on a membrane.
Data set [7] has as its system HCT-116. Briefly: Cell cycle arrest in human HCT116 cells assessed as downregulation of cyclin E expression after 24 hrs by Western blot analysis. The class given is functional, cell-based.
Data set [8] deals with HT-29. Briefly: Cell cycle arrest in human HT-29 cells assessed as downregulation of cyclin E expression after 24 hrs by Western blot analysis. It counts as functional, cell-based.
The subject of data set [9] is HCT-116. Briefly: Induction of apoptosis in human HCT116 cells after 24 hrs by propidium iodide staining-based flow cytometric analysis. It counts as functional, cell-based.
The test system of data set [10] is HT-29. Briefly: Induction of apoptosis in human HT-29 cells after 24 hrs by propidium iodide staining-based flow cytometric analysis. It counts as functional, cell-based.
The test system of data set [11] is HCT-116. Briefly: Induction of apoptosis in human HCT116 cells at 40 uM after 24 hrs by propidium iodide staining-based flow cytometric analysis (reference value: 5.25%). It counts as functional.
In data set [12] the test system is HCT-116. Briefly: Induction of apoptosis in human HCT116 cells assessed as upregulation of Bim expression after 24 hrs by Western blot analysis. It counts as functional, cell-based.
Data set [13] has as its system HCT-116. Briefly: Induction of apoptosis in human HCT116 cells assessed as downregulation of Bcl2 expression after 24 hrs by Western blot analysis. The class given is functional, cell-based.
The subject of data set [14] is HT-29. Briefly: Induction of apoptosis in human HT-29 cells assessed as upregulation of Bim expression after 24 hrs by Western blot analysis. It counts as functional, cell-based.
Data set [15] has as its system HT-29. Briefly: Induction of apoptosis in human HT-29 cells assessed as upregulation of Bax expression after 24 hrs by Western blot analysis. The class given is functional, cell-based.

In the case of `CC(=O)Oc1ccccc1C(=O)Oc1ccc(/C=C/c2cc(O)cc(O)c2)cc1`, the Retention_time with Stomach is 43 min. Further, the Activity is 11.03% in the data set on HCT-116 [1]; 61.34% in the data set with HCT-116 [2]; 45.15% in the data set on HT-29 [3]; 41.33% in the data set with HT-29 [4]; 4.95% in the data set with HT-29 [5]; “Dose-dependent effect” in the data set on HCT-116 [6]. The Activity entry in the data set on HCT-116 [7] is “Dose-dependent effect”; in the data set on HT-29 [8], “Dose-dependent effect”; in the data set on HCT-116 [9], “Dose-dependent effect”; with HT-29 [10], “Dose-dependent effect”; with HCT-116 [11], 17.4%; in the data set with HCT-116 [12] it was “Dose-dependent effect”. The Activity result with HCT-116 [13], in the data set on HT-29 [14] and in the data set on HT-29 [15] was “Dose-dependent effect” each time.
